Values of other authors as cited in patent publication US20190275102A1, “STERILE INJECTABLE COMPOSITION COMPRISING CARFILZOMIB” (CADILA HEALTHCARE LIMITED, priority 2018, published 2019).

Compound	solubility in acidic conditions (acidic conditions)	solubility in water (water)	single dose showing renal tolerance (kidney; animal trials, single-dose studies, i.v.)	dose with evidence of renal cellular toxicity (kidney; in vivo)	renal function (kidney; in vivo)
CC(C)C[C@H](NC(=O)[C@H](CCc1ccccc1)NC(=O)CN1CCOCC1)C(=O)N[C@@H](Cc1ccccc1)C(=O)N[C@@H](CC(C)C)C(=O)[C@@]1(C)CO1 [Carfilzomib, (2S)—N—((S)-1-((S)-4-methyl-1-((R)-2-methytoxiran2-yl)-1-oxopentan-2-ylcarbamoyl)-2-phenylethyl)-2-((S)-2-(2-morpholinoacetamido)-4-phenylbutanamido)-4-methylpentanamide]	very slightly soluble	practically insoluble	–	–	–
sulfobutylether beta-cyclodextrin	–	–	up to 2000 mg/kg	≥ 160 mg/kg/day	not impaired
